Laboratory results from ChEMBL document CHEMBL1201862, “PubChem BioAssay data set” (2004).
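Growth conditions: 96-well plates. Treatment: test compound, 48 hours, 5 concentrations. Analysis: linear interpolation between bracketing concentrations; unreached endpoints set to highest concentration. At the GI50, growth is halved.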 Active and inactive are the calls of the source. No stated cut-off is given here; in the data, active = GI50 up to about 1.1 µM and inactive = higher. Where a SMILES comes first, the peptide text is derived from it. The star is where a group is joined. Boc = CC(C)(C)OC(=O)*

How the values were obtained:
Assay in all cases: NCI tumour cell line growth inhibition, 48 h
BT-549 = system: BT-549
MDA-MB-435 = system: MDA-MB-435
MDA-N = system: MDA-N
DMS-273 = system: DMS-273
HOP-18 = system: HOP-18
M19-MEL = system: M19-MEL
LXFL 529 = system: LXFL 529
RXF 631 = system: RXF 631
XF498 = system: XF498

Structure (SMILES) | GI50 (BT-549) | GI50 (MDA-MB-435) | GI50 (MDA-N) | GI50 (DMS-273) | GI50 (HOP-18) | GI50 (M19-MEL) | GI50 (LXFL 529) | GI50 (RXF 631) | GI50 (XF498)
CCc1c(O)c2c(c(O)c1C(C)=O)C(=O)c1c(cc(O)c(C(=O)O)c1C(=O)O)C2=O | > 100 µM (inactive) | > 100 µM (inactive) | > 100 µM (inactive) | – | – | – | – | – | –
Cc1c2cnccc2c(C)c2c1c1ccccc1n2CC1CO1 (stereo not drawn) | – | – | – | 0.638 µM (active) | 1.86 µM (inactive) | 1.31 µM (inactive) | – | – | –
CC(=O)NNc1nc(C)c(C(=O)NNC(=O)C(=O)Nc2ccccc2C#N)s1 | – | – | – | > 100 µM (inactive) | > 100 µM (inactive) | > 100 µM (inactive) | > 100 µM (inactive) | > 100 µM (inactive) | –
COC(=O)c1cccc(N[C@@H]2c3cc4c(cc3C(c3cc(OC)c(O)c(OC)c3)[C@H]3C(=O)OCC32)OCO4)c1 (stereo partly drawn) | – | – | – | 0.362 µM (active) | 2.62 µM (inactive) | 1.28 µM (inactive) | – | – | 0.701 µM (active)
O=C1C(Br)=CC2([N+](=O)[O-])CCNC3=C(C4=NCCc5c[nH]c(c54)C3=O)C2=C1Br (stereo not drawn) | – | – | – | 1.72 µM (inactive) | 14.4 µM (inactive) | – | – | – | 2.24 µM (inactive)
CSc1nc2c(c(N3CCOCC3)n1)C(O)n1c(nc3ccccc31)S2 (stereo not drawn) | 30.5 µM (inactive) | 95.3 µM (inactive) | > 100 µM (inactive) | – | – | – | – | – | –
CC(Cc1ccccc1)Nc1ncnc2c1ncn2C1OC(CO)CC1O (stereo not drawn) | > 100 µM (inactive) | > 100 µM (inactive) | > 100 µM (inactive) | – | – | – | – | – | –
NC(C/C=C/P(=O)(O)O)C(=O)O (stereo not drawn) | – | > 100 µM (inactive) | > 100 µM (inactive) | – | – | – | – | – | –
CC(C)(C)OC(=O)NC(Cc1ccccc1)C(=O)N1CCCC1C(N)=O (stereo not drawn) (Boc-Phe-Pro-NH2; configuration not given here) | – | > 100 µM (inactive) | > 100 µM (inactive) | – | – | – | – | – | –
CN1CCC(C(O)(c2ccccc2)c2ccc(Br)cc2)CC1 (stereo not drawn) | > 100 µM (inactive) | 15.5 µM (inactive) | 15 µM (inactive) | – | – | – | – | – | –
CCCN(CCC)c1cc2c(cc1F)c(=O)c(C(=O)O)cn2-c1ccc(N2CCN(C)CC2)cn1 | 10.7 µM (inactive) | 19.4 µM (inactive) | 20.1 µM (inactive) | – | – | – | – | – | –
CC1C2CC(CC2O)C1(C)C (stereo not drawn) | > 100 µM (inactive) | > 100 µM (inactive) | > 100 µM (inactive) | – | – | – | – | – | –
CN1NC(c2ccc(Cl)cc2)=C(C#N)C(=O)CC1c1ccccc1 (stereo not drawn) | – | – | – | > 100 µM (inactive) | 29.9 µM (inactive) | – | > 100 µM (inactive) | > 100 µM (inactive) | –
c1ccc(-c2nnc(-c3nsc4ccccc34)o2)cc1 | – | – | – | > 100 µM (inactive) | – | > 100 µM (inactive) | > 100 µM (inactive) | – | –
Nc1nc(O)c2ncn(C3C=CC(CO)O3)c2n1 (stereo not drawn) | > 100 µM (inactive) | > 100 µM (inactive) | > 100 µM (inactive) | – | – | – | – | – | –
O=C(c1ccccc1)c1nc2ccc(Cl)cc2c2c1CCCO2 | – | – | – | > 100 µM (inactive) | > 100 µM (inactive) | > 100 µM (inactive) | > 100 µM (inactive) | – | 65.9 µM (inactive)
O=C(NN1C(=O)C(Cl)C1c1ccccc1O)c1ccccc1O (stereo not drawn) | – | – | – | – | – | – | 41.4 µM (inactive) | – | –
Cc1nc2ccccc2c(=O)n1Nc1ccc(C(=O)O)cc1 | – | – | – | > 100 µM (inactive) | > 100 µM (inactive) | > 100 µM (inactive) | – | – | > 100 µM (inactive)
CCOC(=O)C(Cc1ccc(N=NN(C)C)cc1)NC(=O)CC1c2ccccc2-c2ccccc21 (stereo not drawn) | – | – | – | 55.3 µM (inactive) | – | 49.3 µM (inactive) | 50.5 µM (inactive) | – | –
C=C(C)[C@@H]1CC[C@@H]2C(=CC[C@]3(C)C([C@H](C)CC/C=C(/C)C(=O)O)CC[C@@]23C)[C@@]1(C)CCC(=O)O (stereo partly drawn) | 21.6 µM (inactive) | 29.2 µM (inactive) | 28.3 µM (inactive) | – | – | – | – | – | –
Cc1ccc(N2C(=O)/C(=C3\SC(C(N)=O)=C(N)N3c3ccccc3)SC2=S)cc1 | – | – | – | – | 37.7 µM (inactive) | > 100 µM (inactive) | > 100 µM (inactive) | – | –
CCOCNC(=O)N(COCC)COCC | – | – | – | – | – | > 100 µM (inactive) | > 100 µM (inactive) | > 100 µM (inactive) | > 100 µM (inactive)
COc1ccc(Cc2nn(C3OC(COC(C)=O)C(OC(C)=O)C(OC(C)=O)C3OC(C)=O)c(=S)n(-c3ccc(OC)cc3)c2=O)cc1 (stereo not drawn) | – | – | – | > 100 µM (inactive) | > 94 µM (inactive) | > 100 µM (inactive) | – | – | > 100 µM (inactive)
c1ccc2c3c(ccc2c1)-c1[nH]ncc1CCO3 | – | – | – | 40.5 µM (inactive) | 61.4 µM (inactive) | 34 µM (inactive) | – | – | 32.4 µM (inactive)
